This note sets out measurements from patent publication US20080269298A1, “Benzimidazol-1-YL-thiophene compounds for the treatment of cancer” (priority 2002, published 2008).

The test system of test [1] is colon (HCT116) tumor cell line. Kind of test: Methylene Blue Growth Inhibition Assay, HCT116. Type of test: cell-based. To be noted: Homo sapiens, HCT-116, 72 h; Cell Line HCT116, 3 days; read-out: MeB IC50. In a few lines:
(§1)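 Methylene blue dye retained by cells after a 3-day, 37° C compound incubation in DMEM/10% FBS (0.3% DMSO) served as the biomass readout at 620 nm. IC50 values were interpolated by nonlinear regression against vehicle wells.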

The test system of test [2] is lung (H460) tumor cell line. Kind of test: Methylene Blue Growth Inhibition Assay, H460. The conditions noted are these: Homo sapiens, NCI-H460, 72 h; Cell Line H460, 3 days; read-out: MeB IC50. The format is cell-based. In a few lines: (§2)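 Growth inhibition is measured as methylene blue-stained biomass (OD 620 nm) after 3 days of compound treatment, relative to vehicle controls. Cells grow in high-glucose DMEM with 10% FBS and 0.3% final DMSO; IC50 comes from nonlinear regression.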

Test [3] has as its system prostate (PC3) tumor cell line. The test is described as follows: Methylene Blue Growth Inhibition Assay, PC3. Type of test: cell-based. To be noted: Homo sapiens, 72 h; Cell Line PC3, 3 days; read-out: MeB IC50. In a few lines: as §1
The test system of test [4] is Normal Human foreskin fibroblasts (HFF). Kind of test: Methylene Blue Growth Inhibition Assay, HFF. The conditions noted are these: 72 h, Cell Line HFF, 3 days, read-out: MeB IC50. The format is cell-based. A digest of the protocol: as §2
Test [5] has as its system colon (RKO) tumor cell line. Kind of test: Methylene Blue Growth Inhibition Assay, RKO. Type of test: cell-based. To be noted: Homo sapiens, 72 h, 3 days, read-out: MeB IC50. In a few lines:
as §2

Test [6] deals with breast tumor (MCF7) cell line. The test is described as follows: Methylene Blue Growth Inhibition Assay, MCF7. To be noted: Homo sapiens, 72 h; Cell Line MCF7, 3 days; read-out: MeB IC50. Type of test: cell-based. In a few lines: as §1
For a further test, the system named is A549. The test is described as follows: Methylene Blue Growth Inhibition Assay, A549. Type of test: cell-based. To be noted: Homo sapiens; Cell Line A549; read-out: MeB IC50.
For a further test, the target named is T1, PLK1 kinase domain (Homo sapiens, UniProt P53350).
T1 construct: made in house; host or cells: baculovirus-infected T. ni insect cells
T1 sequence (P53350 21-346): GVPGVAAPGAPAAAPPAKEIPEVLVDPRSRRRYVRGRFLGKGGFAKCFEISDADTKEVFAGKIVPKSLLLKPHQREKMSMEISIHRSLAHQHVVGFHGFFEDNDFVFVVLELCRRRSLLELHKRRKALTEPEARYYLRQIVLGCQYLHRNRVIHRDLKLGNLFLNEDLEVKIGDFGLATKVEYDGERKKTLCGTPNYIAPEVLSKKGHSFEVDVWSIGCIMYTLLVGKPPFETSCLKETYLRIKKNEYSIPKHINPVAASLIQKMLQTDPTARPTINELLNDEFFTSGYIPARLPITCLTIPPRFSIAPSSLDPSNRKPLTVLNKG
The test is described as follows: Assay for Inhibition of PLK1 (SPA enzyme activity). The conditions noted are these: 2 μM ATP, read-out: Ave pIC50 PLK Enzyme Inhibition (converted). The format is biochemical.

Bounds are passed on as bounds.

As for `CS(=O)(=O)c1ccc2ncn(-c3cc(OCc4ccccc4C(F)(F)F)c(C(N)=O)s3)c2c1` [Example 121], the IC50 in test [1] was 1 to 10 µM; in test [2], 1 to 10 µM; in test [3], over 10 µM; in test [4], over 10 µM; in test [5] it was 1 to 10 µM; in test [6], 1 to 10 µM. For the same compound, the IC50 in the test on A549 is 1 to 10 µM; at PLK1 kinase domain it was under 0.1 µM.

As to `COc1cc2ncn(-c3cc(OCc4cccnc4Cl)c(C(N)=O)s3)c2cc1OC` [Example 101, 3-[(2-Chloropyridin-3-yl)methoxy]-5-(5,6-dimethoxy-1H-benzimidazol-1-yl)thiophene-2-carboxamide], the IC50 in test [1] is 1 to 10 µM; in test [2], 1 to 10 µM; in test [3] it was 1 to 10 µM; in test [4] it was over 10 µM; in test [5], under 1 µM; in test [6], 1 to 10 µM. Moreover, the IC50 is 1 to 10 µM with A549 and under 0.1 µM at PLK1 kinase domain.

Consider `COc1cc2ncn(-c3cc(OCc4ccccc4OC(F)(F)F)c(C(N)=O)s3)c2cc1OC` [Example 107, 5-(5,6-Dimethoxy-1H-benzimidazol-1-yl)-3-{[2-(trifluoromethoxy)benzyl]oxy}thiophene-2-carboxamide], for which the IC50 was 1 to 10 µM in test [1]; under 1 µM in test [2]; 1 to 10 µM in test [3]; 1 to 10 µM in test [4]; under 1 µM in test [5]; 1 to 10 µM in test [6]. Also, the results for the IC50 in the test on A549 and at PLK1 kinase domain were under 1 µM and under 0.1 µM, respectively.

Consider `NC(=O)c1sc(-n2cnc3ccc(OCC4CCNCC4)cc32)cc1OCc1ccccc1C(F)(F)F` [Example 143, 5-{6-[(4-Piperidinylmethyl)oxy]-1H-benzimidazol-1-yl}-3-({[2-(trifluoromethyl)phenyl]-methyl}oxy)-2-thiophenecarboxamide], for which the IC50 in test [1] is under 1 µM; in test [2], 1 to 10 µM; in test [3], 1 to 10 µM; in test [4], 1 to 10 µM; in test [5], under 1 µM; in test [6] it was under 1 µM. The IC50 in the test with A549 was 1 to 10 µM; on PLK1 kinase domain, under 0.1 µM.

`COc1cc2c(cc1OCCCN1CCCC1=O)ncn2-c1cc(OCc2ccccc2C(F)(F)F)c(C(N)=O)s1` [Example 134, 5-(6-(Methyloxy)-5-{[3-(2-oxo-1-pyrrolidinyl)propyl]oxy}-1H-benzimidazol-1-yl)-3-({[2-(trifluoromethyl)phenyl]methyl}oxy)-2-thiophenecarboxamide]: the IC50 in test [1] was 1 to 10 µM; in test [2] it was 1 to 10 µM; in test [3], over 10 µM; in test [4], over 10 µM; in test [5], 1 to 10 µM; in test [6], 1 to 10 µM. The IC50 was 1 to 10 µM in the test with A549 and under 0.1 µM on PLK1 kinase domain.

Regarding `COc1cc2ncn(-c3cc(OC(C)c4ccccc4C(F)(F)F)c(C(N)=O)s3)c2cc1OC` (centres unmarked) [Example 127], the IC50 was under 1 µM in test [1]; under 1 µM in test [2]; 1 to 10 µM in test [3]; 1 to 10 µM in test [4]; under 1 µM in test [5]; under 1 µM in test [6]. In addition, the results for the IC50 with A549 and on PLK1 kinase domain were under 1 µM and under 0.1 µM, respectively.

In the case of `COc1cc2ncn(-c3cc(OC(C)c4ccccc4Cl)c(C(N)=O)s3)c2cc1OC` (centres unmarked) [Example 126, 3-[1-(2-Chlorophenyl)ethoxy]-5-(5,6-dimethoxy-1H-benzimidazol-1-yl)thiophene-2-carboxamide], the IC50 was under 1 µM in test [1]; under 1 µM in test [2]; 1 to 10 µM in test [3]; under 1 µM in test [4]; under 1 µM in test [5]; 1 to 10 µM in test [6]. In the test on A549, the IC50 was under 1 µM.

As to `COc1cc2ncn(-c3cc(OCc4cccnc4F)c(C(N)=O)s3)c2cc1OC` [Example 102, 5-(5,6-Dimethoxy-1H-benzimidazol-1-yl)-3-[(2-fluoropyridin-3-yl)methoxy]thiophene-2-carboxamide], the IC50 in test [1] is 1 to 10 µM; in test [2], 1 to 10 µM; in test [3], over 10 µM; in test [4], over 10 µM; in test [5], under 1 µM; in test [6], 1 to 10 µM. Moreover, the figures for the IC50 with A549 and on PLK1 kinase domain were 1 to 10 µM and under 0.1 µM, respectively.

On to `COc1cc2ncn(-c3cc(OCc4ccncc4Br)c(C(N)=O)s3)c2cc1OC` [Example 120, 3-[(3-Bromopyridin-4-yl)methoxy]-5-(5,6-dimethoxy-1H-benzimidazol-1-yl)thiophene-2-carboxamide], for which the IC50 is 1 to 10 µM in test [1]; 1 to 10 µM in test [2]; over 10 µM in test [3]; over 10 µM in test [4]; under 1 µM in test [5]; 1 to 10 µM in test [6]. Besides, the IC50 in the test on A549 was 1 to 10 µM; on PLK1 kinase domain, under 0.1 µM.

In the case of `COc1cc2ncn(-c3cc(OS(=O)(=O)c4ccccc4C)c(C(N)=O)s3)c2cc1OC` [Example 154, 2-(Aminocarbonyl)-5-(5,6-dimethoxy-1H-benzimidazol-1-yl)thien-3-yl-2-methylbenzenesulfonate], the IC50 in test [1] is 1 to 10 µM; in test [2], under 1 µM; in test [3] it was over 10 µM; in test [4] it was over 10 µM; in test [5] it was under 1 µM; in test [6], under 1 µM. The figures for the IC50 with A549 and at PLK1 kinase domain were under 1 µM and under 0.1 µM, respectively.

For `COc1ccc2ncn(-c3cc(OCc4ccccc4C(F)(F)F)c(C(N)=O)s3)c2c1` [Example 118], the IC50 in test [1] was 1 to 10 µM; in test [2], under 1 µM; in test [3], over 10 µM; in test [4] it was 1 to 10 µM; in test [5] it was under 1 µM; in test [6], under 1 µM. For the same compound, at PLK1 kinase domain, the IC50 was under 0.1 µM.

`C=Cc1ccccc1COc1cc(-n2cnc3cc(OC)c(OC)cc32)sc1C(N)=O` [Example 103, 5-(5,6-Dimethoxy-1H-benzimidazol-1-yl)-3-[(2-vinylbenzyl)oxy]thiophene-2-carboxamide]: the IC50 in test [1] was 1 to 10 µM; in test [2] it was 1 to 10 µM; in test [3], over 10 µM; in test [4], over 10 µM; in test [5] it was 1 to 10 µM; in test [6] it was 1 to 10 µM. In addition, at PLK1 kinase domain, the IC50 was under 0.1 µM.

For the compound `NC(=O)c1sc(-n2cnc3cc(F)c(OCCN4CCOCC4)cc32)cc1OCc1ccccc1C(F)(F)F` [Example 140, 5-[5-Fluoro-6-(2-morpholin-4-ylethoxy)-1H-benzimidazol-1-yl]-3-{[2-(trifluoromethyl)benzyl]oxy}thiophene-2-carboxamide], the IC50 was 1 to 10 µM in test [1]; 1 to 10 µM in test [2]; 1 to 10 µM in test [3]; over 10 µM in test [4]; under 1 µM in test [5]; 1 to 10 µM in test [6]. For the same compound, the IC50 at PLK1 kinase domain was under 0.1 µM.

Regarding `Cc1ccccc1COc1cc(-n2cnc3ccc(Cl)cc32)sc1C(=O)O` [Example 35, 5-(6-Chloro-1H-benzimidazol-1-yl)-3-[(2-methylbenzyl)oxy]thiophene-2-carboxylic acid], the IC50 in test [1], in test [2], in test [3], in test [4], in test [5] and in test [6] was over 10 µM throughout. Further, the IC50 at PLK1 kinase domain is under 0.1 µM.

For `COc1cc2ncn(-c3cc(OS(=O)(=O)c4ccccc4[N+](=O)[O-])c(C(N)=O)s3)c2cc1OC` [Example 153, 2-(Aminocarbonyl)-5-(5,6-dimethoxy-1H-benzimidazol-1-yl)thien-3-yl 2-nitrobenzenesulfonate], the IC50 in test [1], in test [2], in test [3], in test [4], in test [5] and in test [6] was over 10 µM each time. Further, the IC50 on PLK1 kinase domain is under 0.1 µM.

For `COc1cc2ncn(-c3cc(OCc4ccccc4C#N)c(C(N)=O)s3)c2cc1OC` [Example 95, 3-[(2-Cyanobenzyl)oxy]-5-(5,6-dimethoxy-1H-benzimidazol-1-yl)thiophene-2-carboxamide], the IC50 was 1 to 10 µM in test [1]; 1 to 10 µM in test [2]; over 10 µM in test [3]; over 10 µM in test [4]; 1 to 10 µM in test [5]; 1 to 10 µM in test [6]. In addition, the IC50 at PLK1 kinase domain is under 0.1 µM.

`O=C(O)c1sc(-n2cnc3ccc(Cl)cc32)cc1OCc1ccc(F)cc1Cl` [Example 70, 5-(6-Chloro-1H-benzimidazol-1-yl)-3-[(2-Chloro-4-fluorobenzyl)oxy]-thiophene-2-carboxylic acid]: the IC50 in test [1], in test [2], in test [3], in test [4], in test [5] and in test [6] was over 10 µM each time. Further, the IC50 on PLK1 kinase domain is under 0.1 µM.
